Test results published in patent publication US6228889A, “Methods for treatment of conditions associated with lactosylceramide” (priority 1999, dated 2001).
Where a name gives a salt, the structure may show the parent alone. Read-outs that look alike come from different tables or passages of the source.

What was measured:
[1] = system: Mac-1 (CD11b/CD18); conditions: for Mac-1 expression on PMNs, other GSL: 100 nmol/L, 20 minutes
[2] = system: PMN adhesion to unstimulated endothelial cells; test: PMN-endothelial adhesion assay; assay type: cell-based, human; conditions: 100 nmol/L LacCer; anti-CD18 5 μg/ml; quinacrine increasing doses
Description: 12. PMN-Endothelial Adhesion Assay. PMNs were labeled fluorescently by incubation with 5 μmol/L Calcein-AM (Molecular Probes) in calcium-free PBS for 20 minutes at 37° C., washed and resuspended in Hanks' balanced salt solution (Gibco) containing 0.2% bovine serum albumin (BSA). These PMNs were then treated with LacCer (or vehicle, 0.05% DMSO), washed 3 times with PBS and then plated on the unstimulated ec monolayers, which had been grown to confluence in 24-well plates. The PMNs (600 μL of 2×10^6 /mL/well) then were incubated with the ecs for 30 minutes at 37° C. Non-adherent PMNs were then removed by gentle washing 3 times with PBS. The residual adherent PMNs (and ecs) were then lysed using 4mmol/L Zwittergent Calbiochem, La Jolla, Calif.) and the plates read on a fluorescence plate reader (Millipore) at EX 480 nm/EM 530 nm. The number of adherent PMNs were expressed as number of PMN/mm^2 ec monolayer, based on the mean fluorescent intensity of each PMN, as determined from a standard curve. 13. Additional Methods. LacCer, ceramide and […] (all from Sigma) were prepared as described in examples below, and used as putative agonists for the stimulation of PMN adhesion molecule expression, assayed by FACScan. […]

[3] = system: ICAM-1; conditions: for effect on LacCer mediated stimulation of ICAM-1 expression: 5 μM LacCer 4 hours, DPI 10 μM 30 minutes, NAC 15 mM 30 minutes, PDTC 100 μM 1 hour
[4] = system: GalT-2; test: GalT-2 activity in endothelial cells; assay type: cell-based, human
Description: Particularly preferred are GalT-2 assays conducted with the ASMCs and performed in accordance with previously described methods. See e.g., Chatterjee, S., and Castiglione, E. (1987) Biochem. Biophys. Acta, 923:136; and Chatterjee, (1991) S. Biochem. Biophys. Res Comm., 181:554.
Another preferred assay of the invention includes the following steps a) through d):
a) culturing a population of LacCer-responsive cells preferably to confluency in lipoprotein-deficient serum medium, e.g., about 1 mg lipoprotein-deficient serum/protein/ml of medium or less;
b) harvesting the cells preferably in a suitable dispersive buffer, e.g., cacodylate buffer,
c) incubating the harvested cells preferably with a detectably labeled molecule such as a detectably-labeled nucleoside diphosphate sugar donor such as [^14 C]-UDP-galactose typcially in an amount between about 0. 1 to 100 μCi; and
d) measuring LacCer formation as indicative of the activity of the GalT-2 enzyme.

[5] = biological target: T1, GlcT-1 (Homo sapiens, UniProt Q16739); conditions: reported in literature; cited from earlier work
T1 sequence (Q16739 1-394): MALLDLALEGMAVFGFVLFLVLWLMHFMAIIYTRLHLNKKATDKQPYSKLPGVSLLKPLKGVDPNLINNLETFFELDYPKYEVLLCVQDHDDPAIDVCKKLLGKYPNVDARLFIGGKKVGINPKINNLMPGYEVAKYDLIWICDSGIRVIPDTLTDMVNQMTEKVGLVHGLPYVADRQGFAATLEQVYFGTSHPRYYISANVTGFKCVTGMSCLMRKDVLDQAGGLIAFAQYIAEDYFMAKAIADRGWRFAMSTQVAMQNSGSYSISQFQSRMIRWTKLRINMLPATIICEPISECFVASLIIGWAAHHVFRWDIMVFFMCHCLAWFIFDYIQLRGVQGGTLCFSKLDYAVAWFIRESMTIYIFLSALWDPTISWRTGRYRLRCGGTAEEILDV

[6] = system: intimal proliferation; test: Intimal proliferation following balloon angioplasty in rabbits (aorta histology); assay type: in vivo; conditions: rabbit aorta; 10 mg/kg intramuscular daily for six weeks after balloon angioplasty
Text: A rabbit model of restenosis accompanying an invasive surgical procedure such as balloon angioplasty is preferred. One suitable protocol involves administering to the rabbit a suitable vehicle or vehicle combined with one or more GalT-2 inhibitor compounds of interest. The amount of the GalT-2 inhibitor compound administered will vary depending on several parameters including the extent of damage associated with the surgical procedure of interest. In instances where balloon angioplasty is employed, the rabbit will typically receive a candidate GalT-2 inhibitor compound in a dose (e.g., i.m. or i.p.) of between about 0.5 to 100, preferably 1 to 20 and more preferably about 10 mg/kg body weight of the rabbit. A preferred dosage schedule provides for administration of a GalT-2 inhibitor compound starting 24 hurs prior to conducting an invasive surgical procedure, and then continuing administration of the GalT-2 inhibitor compound for 15 days following the surgical procedure. In other protocols, daily injections of the GalT-2 inhibitor compound may be made for about 2 to 12 weeks following the invasive surgical procedure. […] Subsequently, the rabbits are euthanized and a vessel removed for examination, preferably the aorta The vessel is then fixed with formalin and analyzed for proliferation of vascular endothelia, media and advantitia using standard histological procedures. […]

[7] = system: vascular cells; conditions: reported in literature; cited from earlier work
[8] = system: GalT-2; test: GalT-2 activity in thoracic aorta of balloon angioplasty rabbits; assay type: in vivo; conditions: rabbit thoracic aorta; 10 mg/kg intramuscular, 15 days
Description: (§1) Experiments were performed on rabbits to examine the effects of D-PDMP on aortic stenosis following balloon angioplasty. The rabbits were given intramuscular injection of D-PDMP (10 mg/kg) or vehicle 24 hours prior to balloon angioplasty and this regimen was continued for 15 days. Next, the thoracic aorta was harvested, the glycosphingolipids was measured by HPLC analysis, and GalT-2 activity was measured employing assays described above.

[9] = system: GlcCer, LacCer; test: Glycosphingolipid levels (HPLC) in thoracic aorta of balloon angioplasty rabbits; assay type: in vivo; conditions: rabbit thoracic aorta
Description: as §1

[10] = system: Eahy 926 cells; test: Superoxide production by intact Eahy 926 (lucigenin chemiluminescence); assay type: cell-based, human; conditions: 5 μM LacCer; DPI 10 μM 30 minutes, NAC 15 mM 30 minutes, SOD exogenously added (200 U/ml), allopurinol
[11] = system: neutrophil adhesion to Eahy 926 cells; test: Confocal microscopic study of adhesion of human neutrophils to Eahy 926 endothelial cells; assay type: cell-based; conditions: endothelial cells preincubated with 10 μM DPI or 15 mM NAC 30 minutes, then 5 μM LacCer 4 hours
[12] = system: PMNs; test: ROM generation by PMNs (DCFH-DA); assay type: cell-based, human; conditions: 100 or 200 nmol/L LacCer
[13] = system: NADPH oxidase
[14] = system: PMNs; test: Superoxide generation in PMNs (lucigenin); assay type: cell-based, human; conditions: SOD 500 U/ml, DPI 10 μM/L, apocyanin 90 μmol/L, about 15 minutes preincubation; 100 nmol LacCer 20 minutes
[15] = inhibitor 20 minutes, then 100 nmol/L LacCer 20 minutes, BPB 10 μmol/L
[16] = endothelial cells preincubated with D-PDMP
[17] = balloon angioplasty, 10 mg/kg intramuscular from 24 hours prior, continued for 15 days
[18] = endothelial cells, TNF-α as stimulant

ceramide
Mac-1 expression on PMNs, other GSL [1]: did not alter

CCN(CC)CCCC(C)Nc1c2ccc(Cl)cc2nc2ccc(OC)cc12 (centres unmarked) [quinacrine, quinacrine dihydrochloride]
effect on LacCer induced PMN adhesion [2]: inhibited
effect on LacCer-stimulated Mac-1 upregulation on PMNs [1, 15]: did block

glucosylceramide [GIcCer]
Mac-1 expression on PMNs, other GSL [1]: did not alter

S=C(S)N1CCCC1 [PDTC]
effect on LacCer mediated stimulation of ICAM-1 expression [3]: inhibited

CCCCCCCCCC(=O)N[C@H](CN1CCOCC1)[C@H](O)c1ccccc1 [D-PDMP, (1R, 2R)-1-phenyl-2-decanoylamino-3-morpholino-1-propanol]
GalT-2 activity induced by TNF-α [4, 16]: concentration-dependent decrease
inhibition of GlcT-1 [5]: inhibits
intimal proliferation at the site of balloon angioplasty [6]: complete absence of intimal proliferation
proliferation of vascular cells [7]: reduces
decrease of GalT-2 activity versus vehicle [8]: ~ 1.7 fold
level of GicCer and LacCer ([9]; 10 mg/kg intramuscular, 15 days): decrease significantly
GSL Concentration GlcCer [9, 17]: 6 μg/gm wet weight
GSL Concentration LacCer [9, 17]: 10 μg/gm wet weight
ICAM-1 expression induced by TNF-α [3, 16]: concentration-dependent decrease

CC(=O)OCOC(=O)CN(CC(=O)OCOC(C)=O)c1ccccc1OCCOc1ccccc1N(CC(=O)OCOC(C)=O)CC(=O)OCOC(C)=O [BAPTA/AM]
effect on LacCer-stimulated Mac-1 upregulation on PMNs [1, 15]: did not inhibit

Oc1ncnc2[nH]ncc12 [allopurinol]
effect on LacCer induced generation of O2- in endothelial cells [10]: failed to inhibit

CC(=O)N[C@@H](CS)C(=O)O [NAC, N-acetylcysteine]
effect on LacCer induced generation of O2- in endothelial cells [10]: reduced
effect on LacCer-induced neutrophil adhesion [11]: attenuated
effect on neutrophil ROM generation induced by LacCer [12]: inhibited
effect on LacCer-stimulated Mac-1 upregulation on PMNs [1, 15]: did not inhibit
effect on LacCer mediated stimulation of ICAM-1 expression [3]: inhibited

O=c1c(-c2ccc(O)cc2)coc2cc(O)cc(O)c12 [genistein]
effect on LacCer-stimulated Mac-1 upregulation on PMNs [1, 15]: did not inhibit

TNF-α
increase in GalT-2 activity [4, 18]: 1.7 fold
stimulation of ICAM-1 expression [3, 18]: concentration-dependent stimulation

C=C(C)[C@H]1Cc2c(ccc3c2O[C@@H]2COc4cc(OC)c(OC)cc4[C@@H]2C3=O)O1 [rotenone]
effect on NADPH oxidase activity in membrane preparations of LacCer stimulated cells ([13]; DPI 10 μM 30 minutes, rotenone 1 mM): did not inhibit

Cc1nnc2n1-c1sc(CCC(=O)N3CCOCC3)cc1C(c1ccccc1Cl)=NC2 [WEB 2086]
effect on LacCer-stimulated Mac-1 upregulation on PMNs [1]: No significant inhibition

CN[C@@H]1C[C@H]2O[C@@](C)([C@@H]1OC)n1c3ccccc3c3c4c(c5c6ccccc6n2c5c31)C(=O)NC4 [staurosporine]
effect on LacCer-stimulated Mac-1 upregulation on PMNs [1]: did not inhibit

c1ccc2c(c1)[I+]c1ccccc1-2 [DPI, diphenyleneiodonium chloride]
effect on LacCer induced superoxide generation in PMNs [14]: relatively less inhibitory
effect on LacCer induced generation of O2- in endothelial cells [10]: failed to respond
effect on LacCer-induced neutrophil adhesion [11]: attenuated
effect on neutrophil ROM generation induced by LacCer [12]: completely blocked
effect on NADPH oxidase activity in membrane preparations of LacCer stimulated cells [13]: attenuated
effect on LacCer-stimulated Mac-1 upregulation on PMNs [1]: did not inhibit
effect on LacCer mediated stimulation of ICAM-1 expression [3]: inhibited

COc1cc(C(C)=O)ccc1O [apocyanin]
effect on LacCer induced superoxide generation in PMNs [14]: relatively less inhibitory
